Reference: patent US20090061022A1, “Pharmaceutical composition comprising arsenite for the treatment of malignancy” (priority 2004, published 2009)
Values joined by “and” are separate entries in the source; they are usually repeats but may differ in a detail not shown here. Identical values can stand only once.

What was measured:
Assay type in all cases: cell-based
HT29 = experiment: Cytotoxic activity, propidium iodide fluorescence assay, panel of 9 human cancer cell lines; settings: HT29 colon cancer, 3-7 days
Method: (§1) Three kinds of stock solutions were prepared for in vitro cytotoxic activity test. The first solution is DMSO (dimethyl sulfoxide) mixed with sodium meta-arsenite. […] The third solution is DMSO mixed with arsenic acid sodium salt. Those three solutions were diluted with culture medium (RPMI 1640). The final concentrations of DMSO in those three solutions are less than 0.3 vol %.
(§2) Nine kinds of human cancer cell lines out of six kinds of cancers were grown at 37° C. under a controlled atmosphere of 95% air and 5% CO2. The cells were grown on monolayer cultures of RPMI 1640 cell culture medium supplemented with 10% fetal calf serum.
(§3) The grown cells were harvested from exponential phase cultures by trypsinization and counted. The counted cells were placed in a plate, which has ninety six wells. Each well on the plate is in a shape of a flat-bottomed microtitre. Density of the cells in a suspension was adjusted depending on the cell line. The suspension was prepared by diluting the grown cells with the culture medium (RPMI 1640). Concentration of the cells were varied from 5×10^4 to 1×10^5 viable cells/ml. 100 μl of the suspension was placed in each well of the plate. […] Then add 50 μl of culture medium (RPMI 1640) only to 6 wells, 50 μl/well, among the 96 wells of one plate. It is called controlled. One well is filled with culture medium plus 5-FU. And another 50 μl of culture medium plus one of the stock solutions were added to each of the left 89 wells to allow cells to resume exponential growth.
(§4) The cytotoxic activity test was executed with three plates simultaneously to check reliability of the data obtained. The three plates contain the same samples of cancer cells. The three plates were then incubated for 3-7 days under the same controlled atmosphere and cell proliferation was assessed with a modified propodium iodide fluorescence assay. After thawing of the plates, fluorescence was measured using a Millipore Cytofluor 2350-microplate reader (excitation 530 nm emission 620 nm) in order to quantify the total cell number. The assay included untreated and positive controls containing 5-FU.
(§5) Growth inhibition is defined as (numbers of cancer cell alive) treated (T)/(number of cells) control (C)×100% (T/C %).

MEXF 462NL = experiment: as above; settings: MEXF 462NL melanoma, 3-7 days
Method: as §1, §2, §3, §4, §5

U937 = experiment: as above; settings: U937 lymphoma, 3-7 days
Method: as §1, §2, §3, §4, §5

RXF 944L = experiment: as above; settings: RXF 944L renal cancer, 3-7 days
Method: as §1, §2, §3, §4, §5

CCRF-CEM = experiment: as above; settings: CCRF-CEM leukemia, 3-7 days
Method: as §1, §2, §3, §4, §5

UXF 1138 = experiment: as above; settings: UXF 1138 uterine body, 3-7 days
Method: as §1, §2, §3, §4, §5

LXFL 529L = experiment: as above; settings: LXFL 529L NSCLC, 3-7 days
Method: as §1, §2, §3, §4, §5

MEXF 514L = experiment: as above; settings: MEXF 514L melanoma, 3-7 days
Method: as §1, §2, §3, §4, §5

K562 = experiment: as above; settings: K562 leukemia, 3-7 days
Method: as §1, §2, §3, §4, §5

[1] = test system: panel of 9 human cancer cell lines; experiment: Cytotoxic activity, whole panel of 9 human cancer cell lines (means, active/total); settings: for Active/Total cancer cell lines / Active/Total cancer cell lines, percent: active = T/C<30
Method: as §1, §2
as §3, with “1640).” for “1640). Concentration of the cells were varied from 5×10^4 to 1×10^5 viable cells/ml. 100 μl of the suspension was placed in each well of the plate.”
as §4, §5

[2] = mean over human cancer cell lines tested (9 line panel)

SMILES: O=[As][O-].[Na+] [Sodium meta-arsenite, sodium meta-arsenite]
- T/C % at drug concentration (HT29; 1 μg/ml): 91%
- T/C % at drug concentration (HT29; 3 μg/ml): 60%
- T/C % at drug concentration (HT29; 10 μg/ml): 40%
- T/C % at drug concentration (HT29; 30 μg/ml): 22%
- T/C % at drug concentration (HT29; 100 μg/ml): 14%
- T/C % at drug concentration (MEXF 462NL; 1 μg/ml): 112%
- T/C % at drug concentration (MEXF 462NL; 3 μg/ml): 120%
- T/C % at drug concentration (MEXF 462NL; 10 μg/ml): 101%
- T/C % at drug concentration (MEXF 462NL; 30 μg/ml): 91%
- T/C % at drug concentration (MEXF 462NL; 100 μg/ml): 15%
- T/C % at drug concentration (U937; 1 μg/ml): 3%
- T/C % at drug concentration (U937; 3 μg/ml): 3%
- T/C % at drug concentration (U937; 10 μg/ml): 2%
- T/C % at drug concentration (U937; 30 μg/ml): 2%
- T/C % at drug concentration (U937; 100 μg/ml): 1%
- T/C % at drug concentration (RXF 944L; 1 μg/ml): 124%
- T/C % at drug concentration (RXF 944L; 3 μg/ml): 79%
- T/C % at drug concentration (RXF 944L; 10 μg/ml): 57%
- T/C % at drug concentration (RXF 944L; 30 μg/ml): 32%
- T/C % at drug concentration (RXF 944L; 100 μg/ml): 9%
- T/C % at drug concentration (CCRF-CEM; 1 μg/ml): 48%
- T/C % at drug concentration (CCRF-CEM; 10 μg/ml): 43%
- T/C % at drug concentration (CCRF-CEM; 100 μg/ml): 29%
- T/C % at drug concentration (UXF 1138; 1 μg/ml): 107%
- T/C % at drug concentration (UXF 1138; 3 μg/ml): 114%
- T/C % at drug concentration (UXF 1138; 10 μg/ml): 103%
- T/C % at drug concentration (UXF 1138; 30 μg/ml): 95%
- T/C % at drug concentration (UXF 1138; 100 μg/ml): 30%
- T/C % at drug concentration (LXFL 529L; 1 μg/ml): 79%
- T/C % at drug concentration (LXFL 529L; 3 μg/ml): 61%
- T/C % at drug concentration (LXFL 529L; 10 μg/ml): 21%
- T/C % at drug concentration (LXFL 529L; 30 μg/ml): 7%
- T/C % at drug concentration (LXFL 529L; 100 μg/ml): 4%
- T/C % at drug concentration (MEXF 514L; 1 μg/ml): 120%
- T/C % at drug concentration (MEXF 514L; 3 μg/ml): 95%
- T/C % at drug concentration (MEXF 514L; 10 μg/ml): 98%
- T/C % at drug concentration (MEXF 514L; 30 μg/ml): 70%
- T/C % at drug concentration (MEXF 514L; 100 μg/ml): 21%
- T/C % at drug concentration (K562; 1 μg/ml): 51%
- T/C % at drug concentration (K562; 3 μg/ml): 15%
- T/C % at drug concentration (K562; 10 μg/ml): 15%
- T/C % at drug concentration (K562; 30 μg/ml): 18%
- T/C % at drug concentration (K562; 100 μg/ml): 13%
- Active/Total cancer cell lines ([1]; 1 μg/ml): 1/9
- Active/Total cancer cell lines, percent ([1]; 1 μg/ml): 11%
- Active/Total cancer cell lines ([1]; 3 μg/ml): 2/8
- Active/Total cancer cell lines, percent ([1]; 3 μg/ml): 25%
- Active/Total cancer cell lines ([1]; 10 μg/ml): 3/9
- Active/Total cancer cell lines, percent ([1]; 10 μg/ml): 33%
- Active/Total cancer cell lines ([1]; 30 μg/ml): 4/8
- Active/Total cancer cell lines, percent ([1]; 30 μg/ml): 50%
- Active/Total cancer cell lines, percent ([1]; 100 μg/ml): 89%
- Assessment from comparison of the IC50 values ([1]; 9 cell line panel): most potent compound of the series
- IC50 [1, 2]: 56 µM
- IC90 [1, 2]: 490 µM
- Mean IC50 [1, 2]: 7.3 µg/mL
- Mean IC70 [1, 2]: 19.8 μg/ml and 152 μM
- Mean IC90 [1, 2]: 63.7 µg/mL
